In patent publication US12527776B2, “Treatment of ciliopathies using inhibitors of glucosylceramide synthase (GCS)” (GENZYME CORPORATION, priority 2019, dated 2026):

Assays:
[1] = test system: human preadipocytes SQ cells with BBS1, BBS2 or BBS10 knocked-down; assay: In vitro adipocyte differentiation assay; format: cell-based; details: 1.25-10 μM, 10 days differentiation
Method: In Vitro Adipocyte Differentiation Assay
In order to examine the effect of Compound 1 on other mutations, we developed an in vitro differentiation assay in human preadipocyte cells. The BBS genes BBS1, BBS2, or BBS10 were knocked-down in cells using siRNA. For this, human preadipocytes SQ cells (Lonza) were plated in PGM-2 Preadipocyte Growth Medium-2 BulletKit, (Lonza) at 30,000 cells/cm^2 density and grown at 37° C. overnight. On the next day, cells were transfected with BBS1, BBS2 or BBS10 specific siRNA in OptiMem (Invitrogen) in the presence of Lipofectamine 2000 (Invitrogen) and differentiated in RDM-2 medium (Lonza) for 10 days with or without Compound 1 at concentrations of […], 5.0 and 10 μM (stock of Compound 1 was prepared in 100% ethanol and diluted with RDM-2 medium to final concentrations before adding to cells). A mixture of nonspecific siRNA (scrambled) was used as a negative control. Media was harvested for leptin analysis with Quantikine ELISA kit (RnD Systems, Inc.) at days 0, 5, 7 and 10 of adipocytes differentiation. Photomicroscopy (Axiovert 25, Zeiss with LASv4.2, Leica) was used to quantify lipid accumulation, which is evident by the size and quantity of lipid vacuoles in the cells.

[2] = test system: Bbs2−/− mice adipose tissue; assay: RNA sequencing of adipose tissue of Bbs2−/− mice; format: in vivo, mouse; details: 0.033% w/w in feed from 1 to 6 months of age
Method: Total RNA was isolated from previously flash frozen adipose tissue dissected from four six-month old Wt (Wt #1-4), Bbs2^−/− (Bbs #1-4) or Bbs2^−/− treated with 0.033% w/w of Compound 1 (Bbs+Cmpd1 #1-4) in feed from 1 to 6 months of age using TRIzol (Thermo Fisher Scientific) and chloroform extractions. RNA samples were further purified with RNAeasy Mini Kit (Qiagen) to remove genomic DNA. The concentration and purity of RNA was assessed with a NanoDrop 8000 microspectrophotometer (Thermo Fisher Scientific). RNA integrity was then evaluated with a 4200 TapeStation System (Agilent Technologies).
The sequencing libraries were generated using the TruSeq Stranded mRNA Library Prep Kit as per the manufacturer recommendations (Illumina). Sequencing was performed using High Output NextSeq 500/550 v2.5 kits on an Illumina NextSeq 500 platform (2×75 bp paired-end reads).
Data analysis was performed with Array Studio V10.1 (Omicsoft Corporation, a Qiagen company) and mapped to Genome Reference Consortium Mouse Build 38. Heatmaps are generated using a Center Scale normalization algorithm on median normalized Log 2 expression values as per the software developer (Omicsoft).

[3] = test system: Bbs2−/− immortalized kidney epithelial cells; assay: Cell culture and primary cilium staining (cilia length, GSL localization); format: cell-based, mouse; details: serum free, compound for 6-24 hours
Method: Cell Culture and Primary Cilium Staining
Wild type and Bbs2^−/− kidney epithelium cell lines were established and maintained as described previously (See Natoli T et al., Nat Med, 16:788-792 (2010); and Humes H D. et al., Am J Kidney Dis, 39:1078-1087(2002)). Cells were cultured on collagen I coated glass slides in DMEM containing 1% penicillin/streptomycin, 10% FBS. To determine the effect of compounds on cilia and lipid localization, cells were cultured in serum free media for 24 hours followed by the addition of Compound 1 for 6-24 hours. Cells were then fixed with 4% paraformaldehyde followed by immunofluorescence with anti-GM3 (Creative Biolabs), anti-ceramide (Sigma Aldrich), anti-GM1 (Invitrogen), and anti-acetylated tubulin (Cell Signaling) antibodies. Cilia length was quantified using Metamorph software.

[4] = test system: Bbs2−/− mouse model of BBS; assay: GL1 analysis in tissues of Bbs2−/− mice; format: in vivo; details: 0.033% w/w in feed from 1 to 6 months of age
From the text: A Bbs2^−/− mouse model has been described by Nishimura D Y et al. (Proc Natl Acad Sci, 101:16588-16593 (2004)) with exons 5-14 of Bbs2 replaced with a neomycin cassette. Mice were backcrossed into 129/SvJ background. Treated Bbs2^−/− mice were fed ad libitum with 0.033% w/w of Compound 1 incorporated in feed from the age of 1 month to 6 months. Bbs2^−/− and Wt control animals were fed regular 5053 chow (LabDiet). To establish metabolic disease, Bbs2^−/− mice were left untreated until four-months of age, and then treated with Compound 1 incorporated into feed for the fifth and sixth months.
Quantitative analysis of glycosylceramide was performed by liquid chromatography and tandem mass spectrometry (LC/MS/MS). Briefly, 100 mg of tissue were homogenized in 1 ml of water with Mini Beadbeater (BioSpec Products, Inc., Bartlesville, OK). 10 μl of homogenate was extracted with 1 ml of 90% of 96:2:1:1 acetonitrile/methanol/acetic acid/water (v/v/v/v) (mobile phase A) and 10% of 98:1:1 methanol/acetic acid/water (v/v/v) (mobile phase B); both contained 5 mM ammonium acetate. The samples were placed on a VX-2500 tube vortexer (VWR International, LLC, MA) for 5 min and then centrifuged for 4 min at 8,400 rpm (Beckman Coulter, Inc., IN). […] Quantitation was performed using GL1 standard (Glucocerebrosides, Gaucher's spleen; Matreya, LLC, Pleasant Gap, PA).

SMILES: CC(C)(NC(=O)OC1CN2CCC1CC2)c1cccc(-c2ccc(F)cc2)c1 (stereo not drawn) [Compound 1, 1-azabicyclo[2.2.2]oct-3-yl [2-(4′-fluorobiphenyl-3-yl)propan-2-yl]carbamate]
- leptin secretion [1]: reduction
- lipid accumulation [1]: reduction of lipid accumulation
- expression of genes in adipogenesis, ciliogenesis and sphingolipid homeostasis pathways [2]: normalizes the expression of genes
- GM3 localization [3]: restores GM3 localization similar to what is observed in Wt cells
- cilia length [3]: elongates cilia
- levels of GL1 in the brain, kidney, liver and serum [4]: reduction
